In patent US20260234135A1, “CRYSTALLINE FORMS OR SALTS OF A DEUTERATED COMPOUND” (ALEBUND PHARMACEUTICALS (HONG KONG) LIMITED, priority 2023, published 2026):

Key:
[1] = tested on: db/db type 2 diabetes model; assay: Oral glucose tolerance test (OGTT) in db/db animals; type: in vivo, db/db mice; details: for OGTT blood glucose levels at each time point compared with the vehicle group: within 120 minutes, different dosages
Description: At the end of the experiment, oral glucose tolerance tests were carried out on the db/db animals treated by different compounds. […] .

[2] = 7-day repeated oral gavage, body weights of ICR mice; type: in vivo; details: for Weight Gain (g) compared with Day 0: n = 10
Excerpt: 50 male ICR mice aged 6-8 weeks; source: Laboratory Animal Business Department, Shanghai Institute of Planned Parenthood Research.
After 3 days of acclimatization, ICR mice were grouped according to their body weights. The day of grouping is designated as Day 0. […] The animals were weighed and recorded daily.

[3] = tested on: rat model of unilateral ureteral obstruction; assay: Rat model of unilateral ureteral obstruction, renal injury; details: 0.2 mg/kg oral daily, 14 treatment days
Description: Housing temperature was maintained at 20-26° C. and humidity at 40%-60%. Rats were fed with a standard chow and allowed to access food and water ad libitum.
The formulation was prepared twice a week.
Vehicle or compounds were administrated by orally gavage daily. Unilateral ureteral obstruction was performed on the second day of compound treatment. Animals in model group, reference group and compound group underwent urethral ligation under isoflurane anesthesia one hour after receiving compound administration. A flank incision was cut to expose the left ureter, and a 4-0 surgical suture was used to perform two-point ligation to achieve urethral obstruction. Ureter was cut between the two ligation points. Animals in the control group were subjected to the same surgical treatment except the ligation and cut. After surgery, animals in each group continually received vehicle or compound for 12 more days, for a total of 14 treatment days.
Rats were sacrificed after 14 days' compound treatment. The obstructed kidney was weighed and collected for histology. The tissue samples were fixed with formalin, and then paraffin embedded. The embedded tissue was sectioned and stained with hematoxylin & eosin and Masson trichrome to assess kidney structure and fibrosis.
The multiple comparison was analyzed with the Kruskal-Wallis non-parameter test. […]

[4] = tested on: db/db type 2 diabetes model; assay: db/db type 2 diabetes model (body weight, serum TG, random blood glucose); details: for Serum TG levels compared with the vehicle group / Average daily body weights compared with the vehicle group: Aleglitazar 0.2 mg/kg; for Serum TG levels compared with the vehicle group: Compound 2 at different dosages; for Average daily body weights compared with the vehicle group: Day 10 to Day 15, Compound 2 0.05, 0.2, 1 mg/kg; for Level of lipid, free fatty acid and blood glucose compared with vehicle group: summary, all groups
Description: 45 Db/db mice were evenly divided into 5 groups before the initiation of treatment based on the body weights, serum triglyceride (TG) levels, and random blood glucose levels.
All animals were weighed daily before each dosing and treated daily for 14 consecutive days.
All the data was imported into an Excel file and presented as Mean±SEM. Graphpad Prism 7.0 software was used for data statistical analysis by One-way or Two-way ANOVA, with P<0.05 as the criterion of significant differences.

[5] = tested on: rat model of hyperlipidemia induced by high cholesterol diet; assay: Rat model of hyperlipidemia induced by high cholesterol diet (serum TG, NEFA); type: in vivo, Sprague-Dawley rats; details: for Serum NEFA compared with the vehicle group / Serum TG compared with the vehicle group: 0.2 mg/kg and 0.6 mg/kg oral, after 7 days of treatment (Day 8)
Excerpt: 8.2.1 High cholesterol diet (ASHF4) was used to induce an animal model of hyperlipidemia in the SD rats.
8.2.2 The male SD rats were fed with high cholesterol diet (ASHF4, Dyet, China) for 14 days. On the day before the start of the administration (Day 0), the animals were divided into 5 groups based on body weights and serum indicators and were continually fed with the high-cholesterol diet. The treatment groups were orally dosed with either compound or vehicle while continuing the high-cholesterol diet for a total of 1 week. The animals were weighed daily before the treatment, and the compounds were given at 9:00-9:30 in the morning based on the body weight of the day.
8.2.3 Animal blood was collected, and serum was separated for the analysis of serum lipid indicators on the day before the treatment and at the end of the last day for the experiment.
8.2.4 Serum indicators of triglyceride (TG) and free fatty acid (NEFA) were determined by an automatic blood biochemical analyzer.

[6] = phase 3 clinical trials; cited from earlier work
[7] = tested on: diabetic nephropathy model; assay: Diabetic nephropathy pharmacodynamic model (uninephrectomized db/db mice); type: in vivo, db/db: BLKS male mice
Excerpt: At the age of 6 weeks, db/db mice were anesthetized with 2.5% […] and subjected to uninephrectomy with removal of right kidney. Buprenorphine was applied after surgery.
11.1.2 Procedure. Two weeks after surgery, db/db mice were randomly assigned into 5 groups. Wild type mice were used for the control animals. […] Compounds were orally administrated once per day for 10 weeks.
At the 5th and 9th week after compound administration, mice were placed in metabolic cages for urine collection. Albumin level was measured for 24 hr albumin excretion calculation. At the 10th week after treatment, the animals were sacrificed for kidney dissection. The kidney was fixed in 10% neutral buffed formalin, then paraffin-embedded for histopathological analysis. Glomerulosclerosis was assessed by evaluating glomerular basement membrane, mesangial expansion, nodular sclerosis and glomerulosclerosis. Severity was graded as follows: 0: normal; 1: Glomerular basement membrane thickening: isolated glomerular basement membrane thickening and only mild, nonspecific changes by light microscopy; 2: Mesangial expansion mild (IIa) or severe (IIb): glomeruli with mild or severe mesangial expansion but without nodular sclerosis or global glomerulosclerosis in more than 50% of glomeruli; 3: Nodular sclerosis: at least one glomerulus with nodular increase in mesangial matrix; 4: Advanced diabetic glomerulosclerosis: more than 50% global glomerulosclerosis with other clinical or pathological evidence that sclerosis is attributable to diabetic nephropathy. Renal tubular injury was scored as follows: 0: no obvious lesions; 1: up to 25% involvement of tubular lesion; 2: lesion in 25% to 50% of renal tubular; 3: 50% to 75% of renal tubular lesion and grade 4: >75% tubular lesion.
Graphpad 8.0 software was used for statistical analysis. The difference between the values were analyzed with one-way ANOVA. The difference between histopathological score was analyzed with Kruskal-Wallis nonparameter test. All values were compared with the group 2.

[8] = 0.2 mg/kg (Aleglitazar P<0.001; Compound 2 P<0.01)
[9] = 0.2 mg/kg oral QDx7 days, Day 1, ICR mice
[10] = 0.2 mg/kg oral QDx7 days, Day 2, ICR mice
[11] = 0.2 mg/kg oral QDx7 days, Day 3, ICR mice
[12] = 0.2 mg/kg oral QDx7 days, Day 4, ICR mice
[13] = 0.2 mg/kg oral QDx7 days, Day 5, ICR mice
[14] = 0.2 mg/kg oral QDx7 days, Day 6, ICR mice
[15] = 0.2 mg/kg oral QDx7 days, Day 7, ICR mice
[16] = 1 mg/kg oral QDx7 days, Day 1, ICR mice
[17] = 1 mg/kg oral QDx7 days, Day 2, ICR mice
[18] = 1 mg/kg oral QDx7 days, Day 3, ICR mice
[19] = 1 mg/kg oral QDx7 days, Day 4, ICR mice
[20] = 1 mg/kg oral QDx7 days, Day 5, ICR mice
[21] = 1 mg/kg oral QDx7 days, Day 6, ICR mice
[22] = 1 mg/kg oral QDx7 days, Day 7, ICR mice
[23] = Day 8, 0.2 mg/kg oral QDx7 days
[24] = Day 8, 0.6 mg/kg oral QDx7 days

CO[C@@H](Cc1ccc(OCCc2nc(-c3ccccc3)oc2C)c2ccsc12)C(=O)O [Aleglitazar, aleglitazar]
OGTT AUC0-120 min compared with the vehicle group [1, 8]: significantly lower
OGTT blood glucose levels at each time point compared with the vehicle group [1]: significantly reduced
Weight Gain (g) compared with Day 0 [2, 9]: 0.48 ± 0.27 g
Weight Gain (g) compared with Day 0 [2, 10]: 1.66 ± 0.39 g
Weight Gain (g) compared with Day 0 [2, 11]: 2.62 ± 0.42 g
Weight Gain (g) compared with Day 0 [2, 12]: 3.50 ± 0.42 g
Weight Gain (g) compared with Day 0 [2, 13]: 3.92 ± 0.4 g
Weight Gain (g) compared with Day 0 [2, 14]: 4.81 ± 0.37 g
Weight Gain (g) compared with Day 0 [2, 15]: 5.39 ± 0.56 g
Weight gain, significance compared with vehicle, One-way ANOVA ([2]; 0.2 mg/kg, Day 4): * (* p < 0.05)
Daily average weight gain compared with the vehicle group ([2]; 0.2 mg/kg, Day 4 and Day 5): significantly higher
Weight gain, significance compared with vehicle, One-way ANOVA ([2]; 0.2 mg/kg, Day 5): * (* p < 0.05)
Weight Gain (g) compared with Day 0 [2, 16]: 0.5 ± 0.2 g
Weight Gain (g) compared with Day 0 [2, 17]: 1.64 ± 0.26 g
Weight Gain (g) compared with Day 0 [2, 18]: 2.61 ± 0.51 g
Weight Gain (g) compared with Day 0 [2, 19]: 3.33 ± 0.54 g
Weight Gain (g) compared with Day 0 [2, 20]: 3.86 ± 0.49 g
Weight Gain (g) compared with Day 0 [2, 21]: 4.98 ± 0.52 g
Weight Gain (g) compared with Day 0 [2, 22]: 5.34 ± 0.50 g
Daily average weight gain compared with the vehicle group ([2]; 1 mg/kg, Day 6): significantly higher
Weight gain, significance compared with vehicle, One-way ANOVA ([2]; 1 mg/kg, Day 6): * (* p < 0.05)
Total score of renal focal lesions compared to the model group [3]: did not achieve statistically significant improvement
Serum TG levels compared with the vehicle group ([4]; Day 6 and Day 12): significantly lower
Random blood glucose reduction compared with the vehicle group ([4]; Day 7, 0.2 mg/kg): reached statistical significance
Average daily body weights compared with the vehicle group [4]: significantly higher
Level of lipid, free fatty acid and blood glucose compared with vehicle group [4]: significantly decreased
Serum NEFA compared with the vehicle group [5]: significantly reduce
Serum TG compared with the vehicle group [5]: significantly reduce
serum TG, significance compared with the first group (vehicle), One-way ANOVA [5, 23]: * (*p < 0.05)
serum TG, significance compared with the first group (vehicle), One-way ANOVA [5, 24]: **** (****p < 0.0001)
Blood sugar and blood lipid levels [6]: effectively reduce blood sugar and blood lipid levels
Heart failure risk [6]: a certain degree of heart failure risk

[2H]C([2H])(Cc1nc(-c2ccccc2)oc1C)Oc1ccc(C[C@H](OC)C(=O)O)c2sccc12 [Compound 2]
24-hour urinary albumin ([7]; 5th and 9th weeks after compound administration, 0.1, 0.3, 1 mg/kg oral once per day): significantly decreased
Glomerular damage and glomerular hypertrophy ([7]; 10 weeks treatment): suppressed the glomerular damage and ameliorate the glomerular hypertrophy
Renal tubular injury ([7]; all dosage levels): improved the tubular injury at some extend
Glomerular volume ([7]; high dose (1 mg/kg)): statistically significantly reduced
Glomerulosclerosis histopathological score ([7]; high dose (1 mg/kg)): statistically significantly reduced
OGTT blood glucose compared with the vehicle group ([1]; 0.05 mg/kg (Group 4), all time points): trend of decrease but did not reach statistical significance
OGTT AUC0-120 min compared with the vehicle group [1, 8]: significantly lower
OGTT AUC0-120 min compared with the vehicle group ([1]; 1 mg/kg, P<0.0001): significantly lower
OGTT AUC0-120 min compared with Aleglitazar ([1]; same dose level (0.2 mg/kg)): higher
OGTT blood glucose levels at each time point compared with the vehicle group [1]: significantly reduced
Weight Gain (g) compared with Day 0 [2, 9]: 0.45 ± 0.28 g
Weight Gain (g) compared with Day 0 [2, 10]: 1.42 ± 0.22 g
Weight Gain (g) compared with Day 0 [2, 11]: 2.56 ± 0.23 g
Weight Gain (g) compared with Day 0 [2, 12]: 2.96 ± 0.23 g
Weight Gain (g) compared with Day 0 [2, 13]: 3.73 ± 0.34 g
Weight Gain (g) compared with Day 0 [2, 14]: 4.66 ± 0.39 g
Weight Gain (g) compared with Day 0 [2, 15]: 5.08 ± 0.42 g
Daily weight gain compared with the vehicle group ([2]; 0.2 mg/kg, throughout the study): no significant difference
Weight Gain (g) compared with Day 0 [2, 16]: 0.4 ± 0.17 g
Weight Gain (g) compared with Day 0 [2, 17]: 1.57 ± 0.26 g
Weight Gain (g) compared with Day 0 [2, 18]: 2.71 ± 0.19 g
Weight Gain (g) compared with Day 0 [2, 19]: 3.61 ± 0.19 g
Weight Gain (g) compared with Day 0 [2, 20]: 3.96 ± 0.29 g
Weight Gain (g) compared with Day 0 [2, 21]: 4.84 ± 0.4 g
Weight Gain (g) compared with Day 0 [2, 22]: 5.44 ± 0.36 g
Weight gain, significance compared with vehicle, One-way ANOVA ([2]; 1 mg/kg, Day 4): ** (**p < 0.01)
Average daily weight gain compared with the vehicle group ([2]; 1 mg/kg, Day 4 and 5): significantly higher
Weight gain, significance compared with vehicle, One-way ANOVA ([2]; 1 mg/kg, Day 5): * (* p < 0.05)
Total score of renal focal lesions compared to the model group [3]: significantly improved
Serum TG, rank of effect among groups ([4]; 1 mg/kg (Group 6), Day 6 and Day 12): largest effect
statistical difference (p) of the blood glucose level between treatment group and vehicle group ([4]; 0.2 mpk, Day 0, db/db mice): p > 0.05
Serum TG levels compared with the vehicle group ([4]; Day 6 and Day 12): significantly lower
Random blood glucose reduction compared with the vehicle group ([4]; Day 7, 1 mg/kg): reached statistical significance
Average daily body weights compared with the vehicle group [4]: significantly higher
Random blood glucose lowering compared with the vehicle group ([4]; Day 14, 0.05 mg/kg): did not reach statistical significance
Random blood glucose lowering vs vehicle, compared with Day 7 ([4]; Day 14, 1 mg/kg): more pronounced effect of blood glucose lowering
Effect on lowering blood glucose compared with Aleglitazar ([4]; overall): slightly weaker effect
Level of lipid, free fatty acid and blood glucose compared with vehicle group [4]: significantly decreased
Serum NEFA compared with the vehicle group [5]: significantly reduce
Serum TG compared with the vehicle group [5]: significantly reduce
Serum NEFA compared with Aleglitazar ([5]; 0.2 mg/kg, T-test, P<0.05): significantly reduce
Serum TG compared with Aleglitazar ([5]; 0.2 mg/kg, T-test, P<0.05): significantly reduce
serum TG, significance compared with the first group (vehicle), One-way ANOVA [5, 23]: *** (***p < 0.001)
serum TG, significance compared with the first group (vehicle), One-way ANOVA [5, 24]: *** (***p < 0.001)
